Compound: CN(C)CC1=CC(=CC=C1)N=C(C2=CC=CC=C2)C3=C(NC4=C3C=CC(=C4)C(=O)N(C)C)O
Test: relative viability (nuclei count vs DMSO), 5 days (fraction); higher = more cells survive
Procedure, shortened: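 Nuclei counted with MetaXpress define viability as the ratio of treated to vehicle wells, given as a median across plates. The lung cancer cell lines were in 1536-well plates, pinned with five √10-spaced library-drug doses and imaged at 4× after 5 days and Hoechst staining. Plates passed with control CV below 25% and at least one doubling.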

Row | Cell Line | relative viability (0.08 µM) | relative viability (0.253 µM) | relative viability (0.8 µM) | relative viability (2.53 µM) | relative viability (8 µM)
1 | NCI-H520 | 0.879 | 0.958 | 1.01 | 0.932 | 0.881
2 | NCI-H1793 | 1.01 | 1.07 | 0.773 | 1.05 | 0.839
3 | NCI-H2405 | 1.02 | 1.01 | 1.01 | 0.902 | 0.979
4 | HCC-15 | 0.996 | 0.995 | 1.03 | 1.05 | 1.09
5 | NCI-H1975 | 0.955 | 0.915 | 0.85 | 0.926 | 0.789
6 | NCI-H1755 | 0.981 | 0.967 | 0.971 | 0.983 | 0.987
7 | NCI-H2342 | 1.02 | 1.04 | 0.904 | 1.15 | 1.02
8 | COR-L 105 | 1.04 | 1.03 | 0.926 | 0.928 | 0.787
9 | PC-14 | 1.12 | 0.951 | 1.08 | 0.988 | 1.02
10 | NCI-H2126 | 1.01 | 0.988 | 0.941 | 1.03 | 0.903
11 | NCI-H1395 | 0.87 | 0.976 | 1.04 | 0.774 | 0.875
12 | NCI-H1648 | 0.851 | 0.657 | 0.749 | 0.884 | 0.915
13 | NCI-H596 | 1.05 | 0.973 | 0.975 | 1.01 | 0.882
14 | A549 | 1.01 | 0.991 | 1.01 | 0.929 | 0.901
15 | LCLC-103H | 0.951 | 1.07 | 0.931 | 0.986 | 0.915
16 | EMC-BAC-2 | 1.02 | 1.06 | 1.03 | 0.939 | 1.08
17 | EBC-1 | 1.02 | 0.958 | 1.08 | 0.985 | 1.1
18 | NCI-H1915 | 1.01 | 0.986 | 1.07 | 1.01 | 0.992
19 | NCI-H2347 | 0.996 | 1.08 | 0.971 | 1 | 1.09
20 | NCI-H2228 | 1.04 | 1.06 | 0.874 | 0.879 | 0.789
21 | NCI-H1299 | 0.998 | 1.03 | 1.01 | 1.01 | 0.977
22 | NCI-H1563 | 1.02 | 1 | 0.905 | 0.861 | 0.783
23 | NCI-H647 | 0.997 | 0.864 | 0.888 | 0.909 | 0.78
24 | NCI-H838 | 1 | 0.976 | 0.977 | 0.902 | 0.785
25 | NCI-H727 | 0.921 | 0.962 | 0.891 | 1.02 | 0.821
26 | NCI-H661 | 0.975 | 1.05 | 1.01 | 0.958 | 0.941

Row | Cell Line | relative viability (0.08 µM) | relative viability (0.253 µM) | relative viability (0.8 µM) | relative viability (2.53 µM) | relative viability (8 µM)
27 | 201T | 0.983 | 1.02 | 0.997 | 0.947 | 0.901
28 | PC-3 [JPC-3] | 1.04 | 1.05 | 0.866 | 1.06 | 1.09
29 | CAL-12T | 1.07 | 1.02 | 1.09 | 1.01 | 1.12
30 | NCI-H1437 | 1.05 | 0.977 | 1.04 | 1.02 | 1.05
31 | RERF-LC-KJ | 1.08 | 0.992 | 0.907 | 0.982 | 0.996
32 | LK-2 | 1.13 | 1.04 | 0.909 | 0.991 | 0.853
33 | Calu-6 | 1.1 | 1.05 | 1.01 | 0.986 | 0.977
34 | NCI-H1944 | 0.956 | 1.03 | 0.892 | 0.903 | 0.823
35 | HCC-827 | 0.999 | 1.03 | 1.06 | 0.953 | 0.916
36 | NCI-H322M | 0.823 | 0.996 | 0.794 | 0.75 | 0.651
37 | UMC-11 | 1.05 | 0.934 | 0.98 | 0.924 | 0.957
38 | EPLC-272H | 0.837 | 1 | 0.838 | 1.15 | 0.792
39 | NCI-H1666 | 1.07 | 0.994 | 0.959 | 1.11 | 1.12
40 | NCI-H650 | 0.941 | 1.02 | 1.1 | 0.963 | 0.782
41 | LU99A | 0.893 | 0.934 | 0.966 | 0.885 | 0.87
42 | HARA | 0.953 | 0.946 | 0.742 | 0.986 | 1.08
43 | NCI-H1355 | 1.03 | 0.992 | 0.836 | 0.993 | 0.979
44 | IA-LM | 0.961 | 0.871 | 1.03 | 1.07 | 1.13
45 | LCLC-97TM1 | 0.907 | 1.04 | 1.02 | 1.13 | 1.13
46 | SK-MES-1 | 1 | 0.993 | 0.934 | 0.938 | 0.914
47 | A-427 | 1.02 | 1.07 | 0.974 | 0.963 | 0.98
48 | NCI-H460 | 0.981 | 1.04 | 1.04 | 0.933 | 1.01
49 | HCC-44 | 1.08 | 0.987 | 1.03 | 0.949 | 1.05
50 | NCI-H2009 | 1.03 | 0.987 | 1.1 | 0.973 | 0.97
51 | NCI-H1650 | 0.967 | 0.961 | 0.982 | 1.04 | 0.909
52 | NCI-H2085 | 1.02 | 1.02 | 0.98 | 1.02 | 1.02

Row | Cell Line | relative viability (0.08 µM) | relative viability (0.253 µM) | relative viability (0.8 µM) | relative viability (2.53 µM) | relative viability (8 µM)
53 | NCI-H1703 | 0.989 | 0.847 | 1.11 | 0.63 | 0.349
54 | LOU-NH91 | 0.954 | 1.03 | 0.789 | 0.96 | 0.913
55 | NCI-H1734 | 1.1 | 1.05 | 1.04 | 0.962 | 0.824
56 | NCI-H1792 | 0.997 | 1.05 | 0.881 | 0.949 | 0.8
57 | H3255 | 0.942 | 1.02 | 0.889 | 1.02 | 1.04
58 | NCI-H2087 | 0.915 | 1.07 | 1.04 | 0.978 | 0.956
59 | BEN | 0.904 | 0.944 | 0.988 | 1 | 0.909
60 | COR-L23 | 1.04 | 1.02 | 1.09 | 0.95 | 0.967
61 | ABC-1 | 1.1 | 1.05 | 0.971 | 0.891 | 0.864
62 | HCC-366 | 1 | 0.985 | 1.01 | 0.978 | 0.955
63 | NCI-H2170 | 0.952 | 0.981 | 0.812 | 1.02 | 0.915
64 | SK-LU-1 | 1.04 | 1.02 | 0.996 | 0.993 | 0.866
65 | NCI-H2023 | 0.966 | 0.905 | 1.01 | 0.789 | 0.79
66 | NCI-H358 | 0.94 | 0.789 | 0.705 | 0.879 | 0.784
67 | NCI-H1651 | 1.01 | 0.954 | 1.04 | 0.897 | 0.978
68 | EKVX | 0.981 | 0.919 | 0.819 | 1.05 | 0.996
69 | NCI-H1993 | 0.979 | 0.98 | 0.717 | 0.944 | 1.07
70 | SW 1573 | 0.983 | 1.08 | 0.978 | 0.935 | 0.853
71 | LXF-289 | 1.01 | 0.955 | 0.993 | 0.971 | 0.955
72 | NCI-H3122 | 0.948 | 0.94 | 1.08 | 1.01 | 1.02
73 | NCI-H23 | 1.09 | 1.03 | 1.06 | 1.02 | 0.815
74 | HOP-62 | 1.05 | 0.965 | 1.04 | 0.981 | 0.97
75 | ChaGo-K-1 | 0.948 | 0.993 | 1.02 | 0.947 | 1.01
76 | NCI-H441 | 1.03 | 1.14 | 1.2 | 0.984 | 0.923
77 | LC-2-ad | 1.01 | 1.04 | 1.08 | 0.925 | 0.84
78 | HCC-78 | 0.993 | 0.95 | 0.967 | 1.02 | 0.958

Source: the supplement of paper PMC10307832
